Laboratory results from patent US20260262643A1, “HERBICIDAL BENZOXAZINES” (FMC CORPORATION, priority 2022, published 2026).

How the values were obtained:
[1] = system: barnyardgrass; assay: Test C preemergence; format: in vivo, Echinochloa crusgalli; conditions: 0 to 100 scale (0 no effect, 100 complete control)
Method in brief: (§1)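 Visual injury ratings on a 0–100 scale (100 = complete control) were made against untreated controls 10 days after treatment in the greenhouse. Compounds, formulated with surfactant in non-phytotoxic solvent, were sprayed on soil preemergence or onto one- to two-leaf plants 2–10 cm tall postemergence.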

[2] = system: blackgrass; assay: Test C preemergence; format: in vivo, Alopecurus myosuroides; conditions: 0 to 100 scale (0 no effect, 100 complete control)
Method in brief: as §1

[3] = system: corn; assay: Test C preemergence; format: in vivo, Zea mays; conditions: 0 to 100 scale (0 no effect, 100 complete control)
Method in brief: as §1

[4] = system: green foxtail; assay: Test C preemergence; format: in vivo, Setaria viridis; conditions: 0 to 100 scale (0 no effect, 100 complete control)
Method in brief: as §1

[5] = system: kochia; assay: Test C preemergence; format: in vivo, Bassia scoparia; conditions: 0 to 100 scale (0 no effect, 100 complete control)
Method in brief: as §1

[6] = system: oat, wild; assay: Test C preemergence; format: in vivo, Avena fatua; conditions: 0 to 100 scale (0 no effect, 100 complete control)
Method in brief: as §1

[7] = system: pigweed, palmer; assay: Test C preemergence; format: in vivo, Amaranthus palmeri; conditions: 0 to 100 scale (0 no effect, 100 complete control)
Method in brief: as §1

[8] = system: ragweed; assay: Test C preemergence; format: in vivo, Ambrosia artemisiifolia; conditions: 0 to 100 scale (0 no effect, 100 complete control)
Method in brief: as §1

[9] = system: ryegrass, Italian; assay: Test C preemergence; format: in vivo, Lolium multiflorum; conditions: 0 to 100 scale (0 no effect, 100 complete control)
Method in brief: as §1

[10] = system: soybean; assay: Test C preemergence; format: in vivo, Glycine max; conditions: 0 to 100 scale (0 no effect, 100 complete control)
Method in brief: as §1

[11] = system: wheat; assay: Test C preemergence; format: in vivo, Triticum aestivum; conditions: 0 to 100 scale (0 no effect, 100 complete control)
Method in brief: as §1

[12] = system: barnyardgrass; assay: Test C postemergence; format: in vivo, Echinochloa crusgalli; conditions: 10 days
Method in brief: as §1

[13] = system: blackgrass; assay: Test C postemergence; format: in vivo, Alopecurus myosuroides; conditions: 10 days
Method in brief: as §1

[14] = system: corn; assay: Test C postemergence; format: in vivo, Zea mays; conditions: 10 days
Method in brief: as §1

[15] = system: green foxtail; assay: Test C postemergence; format: in vivo, Setaria viridis; conditions: 10 days
Method in brief: as §1

[16] = system: kochia; assay: Test C postemergence; format: in vivo, Bassia scoparia; conditions: 10 days
Method in brief: as §1

[17] = system: oat, wild; assay: Test C postemergence; format: in vivo, Avena fatua; conditions: 10 days
Method in brief: as §1

[18] = system: pigweed, palmer; assay: Test C postemergence; format: in vivo, Amaranthus palmeri; conditions: 10 days
Method in brief: as §1

[19] = system: ragweed; assay: Test C postemergence; format: in vivo, Ambrosia artemisiifolia; conditions: 10 days
Method in brief: as §1

[20] = system: ryegrass, Italian; assay: Test C postemergence; format: in vivo, Lolium multiflorum; conditions: 10 days
Method in brief: as §1

[21] = system: soybean; assay: Test C postemergence; format: in vivo, Glycine max; conditions: 10 days
Method in brief: as §1

[22] = system: wheat; assay: Test C postemergence; format: in vivo, Triticum aestivum; conditions: 10 days
Method in brief: as §1

[23] = system: galium; assay: Test C postemergence; format: in vivo, Galium aparine; conditions: 10 days
Method in brief: as §1

[24] = system: horseweed; assay: Test C postemergence; format: in vivo, Erigeron canadensis; conditions: 10 days
Method in brief: as §1

[25] = system: barnyardgrass; assay: Test D flooded paddy test; format: in vivo, Echinochloa crus-galli; conditions: 250 g ai/ha, applied to paddy water, visual rating after 13 to 14 days, scale 0 to 100 (0 no effect, 100 complete control)
Method in brief: (§2)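 Visual ratings from 0, meaning no effect, to 100, meaning complete control, were assigned against untreated controls 13 to 14 days after compounds were added to the floodwater of pots kept 3 cm deep, with plants at the 2-leaf stage.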

[26] = system: ducksalad; assay: Test D flooded paddy test; format: in vivo, Heteranthera limosa; conditions: 250 g ai/ha, applied to paddy water, visual rating after 13 to 14 days, scale 0 to 100 (0 no effect, 100 complete control)
Method in brief: as §2

[27] = system: rice; assay: Test D flooded paddy test; format: in vivo, Oryza sativa; conditions: 250 g ai/ha, applied to paddy water, visual rating after 13 to 14 days, scale 0 to 100 (0 no effect, 100 complete control)
Method in brief: as §2

[28] = system: sedge, umbrella; assay: Test D flooded paddy test; format: in vivo, Cyperus difformis; conditions: 250 g ai/ha, applied to paddy water, visual rating after 13 to 14 days, scale 0 to 100 (0 no effect, 100 complete control)
Method in brief: as §2

[29] = Preemergence, 500 g ai/ha, visual rating after 10 days
[30] = Test C, preemergence, 125 g ai/ha
[31] = 125 g ai/ha, postemergence, 0 to 100 scale, 0 no effect, 100 complete control
[32] = Postemergence, 500 g ai/ha, visual 0 to 100 scale (0 no effect, 100 complete control)

Cc1cccc2c1O[C@@H](C)CN2C(=O)c1cc(-n2cnc(C(C)C)n2)cc2ccoc12 [Compound 227]
Plant response rating, Barnyardgrass [1, 29]: 90
Barnyardgrass plant response rating [1, 30]: 80
Plant response rating, Blackgrass [2, 29]: 90
Blackgrass plant response rating [2, 30]: 80
Plant response rating, Corn [3, 29]: 60
Corn plant response rating [3, 30]: 50
Plant response rating, Foxtail, Green [4, 29]: 100
Foxtail, Green plant response rating [4, 30]: 100
Plant response rating, Kochia [5, 29]: 100
Kochia plant response rating [5, 30]: 90
Plant response rating, Oat, Wild [6, 29]: 90
Oat, Wild plant response rating [6, 30]: 90
Plant response rating, Pigweed, Palmer [7, 29]: 100
Pigweed, Palmer plant response rating [7, 30]: 90
Plant response rating, Ragweed [8, 29]: 50
Ragweed plant response rating [8, 30]: 0
Plant response rating, Ryegrass, Italian [9, 29]: 90
Ryegrass, Italian plant response rating [9, 30]: 90
Plant response rating, Soybean [10, 29]: 90
Soybean plant response rating [10, 30]: 70
Plant response rating, Wheat [11, 29]: 30
Wheat plant response rating [11, 30]: 0
Plant response rating, Barnyardgrass [12, 31]: 40
Plant response rating, Barnyardgrass [12, 32]: 70
Plant response rating, Blackgrass [13, 31]: 50
Plant response rating, Blackgrass [13, 32]: 80
Plant response rating, Corn [14, 31]: 20
Plant response rating, Corn [14, 32]: 80
Plant response rating, Foxtail, Green [15, 31]: 80
Plant response rating, Foxtail, Green [15, 32]: 90
Plant response rating, Kochia [16, 31]: 90
Plant response rating, Kochia [16, 32]: 100
Plant response rating, Oat, Wild [17, 31]: 30
Plant response rating, Oat, Wild [17, 32]: 60
Plant response rating, Pigweed, Palmer [18, 31]: 100
Plant response rating, Pigweed, Palmer [18, 32]: 100
Plant response rating, Ragweed [19, 31]: 10
Plant response rating, Ragweed [19, 32]: 50
Plant response rating, Ryegrass, Italian [20, 31]: 90
Plant response rating, Ryegrass, Italian [20, 32]: 100
Plant response rating, Soybean [21, 31]: 100
Plant response rating, Soybean [21, 32]: 100
Plant response rating, Wheat [22, 31]: 20
Plant response rating, Wheat [22, 32]: 60
Plant response rating, Galium [23, 31]: 100
Plant response rating, Galium [23, 32]: 100
Plant response rating, Horseweed [24, 31]: 20
Plant response rating, Horseweed [24, 32]: 40
Plant response rating, Barnyardgrass (Flood) [25]: 50
Plant response rating, Ducksalad (Flood) [26]: 80
Plant response rating, Rice (Flood) [27]: 10
Plant response rating, Sedge, Umbrella (Flood) [28]: 98
